Assay [1] deals with Human sodium/glucose co-transporter type 1 (SGLT1) (Homo sapiens (Human), UniProt P13866). Briefly: In vitro human SGLT1 inhibition assay (14C-AMG uptake). The arrangement: key to SGLT1 (human SGLT1 IC50): ***: a value less than 0.01 μM; **: a value less than 0.1 μM; *: a value less than 1 μM; —: a value not measured or exceeding μM. The note with it: HEK293 cells expressing human HA-SGLT1, 14C-AMG uptake. It counts as cell-based. In outline:
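HEK293 cells stably expressing human HA-tagged SGLT1 (30,000/well, overnight) were washed into Na+-containing uptake buffer (140 mM NaCl, HEPES/Tris, 1 mg/mL BSA, pH 7.3). Cells then received compound plus 100 nCi 14C-AMG for 1–2 h at 37 °C; after washing, AMG uptake was quantified by scintillation counting.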

The target of assay [2] is Human sodium/glucose co-transporter type 2 (SGLT2) (Homo sapiens (Human), UniProt P31639). As to the kind of experiment: In vitro human SGLT2 inhibition assay (14C-AMG uptake). It counts as cell-based. The note with it: HEK293 cells expressing human HA-SGLT2, 14C-AMG uptake. In outline: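 HEK293 cells stably expressing HA-tagged human SGLT2, seeded overnight, washed into Na+-containing HEPES/Tris uptake buffer with 1 mg/mL BSA, pH 7.3. Compound added, then 14C-AMG (100 nCi); 1-2 h at 37 °C, 5% CO2. Washed cells counted by scintillation for 14C-AMG uptake.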

Each structure is given as a SMILES string.

Sequence of Human sodium/glucose co-transporter type 2 (SGLT2) (P31639 whole entry): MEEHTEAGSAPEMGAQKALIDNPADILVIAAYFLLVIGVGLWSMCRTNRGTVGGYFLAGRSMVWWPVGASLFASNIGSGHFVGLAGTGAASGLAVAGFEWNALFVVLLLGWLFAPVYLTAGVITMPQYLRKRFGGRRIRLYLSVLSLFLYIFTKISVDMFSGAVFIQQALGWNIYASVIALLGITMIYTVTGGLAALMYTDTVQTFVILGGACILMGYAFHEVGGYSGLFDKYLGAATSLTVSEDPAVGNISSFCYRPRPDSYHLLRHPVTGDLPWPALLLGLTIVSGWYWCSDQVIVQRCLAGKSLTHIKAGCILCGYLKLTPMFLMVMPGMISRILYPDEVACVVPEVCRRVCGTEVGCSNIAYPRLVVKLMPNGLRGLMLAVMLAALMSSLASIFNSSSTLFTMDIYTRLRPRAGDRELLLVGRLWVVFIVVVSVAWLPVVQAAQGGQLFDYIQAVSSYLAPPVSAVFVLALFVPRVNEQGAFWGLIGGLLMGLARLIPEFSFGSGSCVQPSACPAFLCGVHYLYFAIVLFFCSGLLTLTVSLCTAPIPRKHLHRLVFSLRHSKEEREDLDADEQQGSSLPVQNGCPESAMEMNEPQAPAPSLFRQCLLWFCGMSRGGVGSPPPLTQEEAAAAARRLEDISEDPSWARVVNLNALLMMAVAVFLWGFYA
Sequence of Human sodium/glucose co-transporter type 1 (SGLT1) (P13866 whole entry): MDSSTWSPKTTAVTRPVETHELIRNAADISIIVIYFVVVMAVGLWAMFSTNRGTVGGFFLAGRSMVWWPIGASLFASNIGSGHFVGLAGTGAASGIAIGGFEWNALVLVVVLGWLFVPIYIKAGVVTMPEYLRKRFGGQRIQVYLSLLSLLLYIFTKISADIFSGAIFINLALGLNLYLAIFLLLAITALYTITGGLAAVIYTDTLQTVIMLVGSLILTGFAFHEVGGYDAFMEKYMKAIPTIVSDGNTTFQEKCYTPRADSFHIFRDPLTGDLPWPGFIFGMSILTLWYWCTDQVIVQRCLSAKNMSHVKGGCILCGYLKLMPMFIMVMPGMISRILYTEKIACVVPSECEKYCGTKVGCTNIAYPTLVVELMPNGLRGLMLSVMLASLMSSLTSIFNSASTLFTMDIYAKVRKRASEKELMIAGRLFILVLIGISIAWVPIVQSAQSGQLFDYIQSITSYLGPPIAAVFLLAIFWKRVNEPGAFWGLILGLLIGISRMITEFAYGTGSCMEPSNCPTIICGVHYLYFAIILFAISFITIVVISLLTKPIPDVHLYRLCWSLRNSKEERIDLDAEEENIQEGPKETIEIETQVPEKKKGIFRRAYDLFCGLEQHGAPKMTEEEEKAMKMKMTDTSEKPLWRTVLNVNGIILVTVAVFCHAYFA

For `COCCOCCOc1ccc(Cc2cc([C@@H]3O[C@H](SC)[C@@H](O)[C@H](O)[C@H]3O)ccc2Cl)cc1` [(2S,3R,4R,5S,6R)-2-(4-chloro-3-(4-(2-(2-methoxyethoxy)ethoxy)benzyl)phenyl)-6-(methylthio)tetrahydro-2H-pyran-3,4,5-triol], the results for the IC50 in assay [1] and in assay [2] were below 100 nM and below 10 nM, respectively.

In the case of `CCN(CC)CCOc1ccc(Cc2cc([C@@H]3O[C@H](SC)[C@@H](O)[C@H](O)[C@H]3O)ccc2Cl)cc1` [(2S,3R,4R,5S,6R)-2-(4-chloro-3-(4-(2-(diethylamino)ethoxy)benzyl)phenyl)-6-(methylthio)tetrahydro-2H-pyran-3,4,5-triol], the IC50 in assay [1] and in assay [2] was below 10 nM each time.

Regarding `CS[C@H]1O[C@@H](c2ccc(Cl)c(Cc3ccc(OCCNC4CCNCC4)cc3)c2)[C@H](O)[C@@H](O)[C@@H]1O` [(2S,3R,4R,5S,6R)-2-(4-chloro-3-(4-(2-(piperidin-4-ylamino)ethoxy)benzyl)phenyl)-6-(methylthio)tetrahydro-2H-pyran-3,4,5-triol], the IC50 is below 100 nM in assay [1] and below 10 nM in assay [2].

Consider `CS[C@H]1OC(c2ccc(C)c(Cc3ccc(OCCCNC(C)(CO)CO)cc3)c2)[C@H](O)[C@@H](O)[C@@H]1O` (stereo partly drawn) [(3R,4R,5S,6R)-2-(3-(4-(3-((1,3-dihydroxy-2-methylpropan-2-yl)amino)propoxy)benzyl)-4-methylphenyl)-6-(methylthio)tetrahydro-2H-pyran-3,4,5-triol], for which the IC50 in assay [1] and in assay [2] was below 10 nM each time.

For `CS[C@H]1OC(c2ccc(C)c(Cc3ccc(OCCCNC(CO)CO)cc3)c2)[C@H](O)[C@@H](O)[C@@H]1O` (stereo partly drawn) [(3R,4R,5S,6R)-2-(3-(4-(3-((1,3-dihydroxypropan-2-yl)amino)propoxy)benzyl)-4-methylphenyl)-6-(methylthio)tetrahydro-2H-pyran-3,4,5-triol], the IC50 in assay [1] and in assay [2] was below 10 nM throughout.

`CS[C@H]1OC(c2ccc(C)c(Cc3ccc(OCCCNCC(C)(C)CO)cc3)c2)[C@H](O)[C@@H](O)[C@@H]1O` (stereo partly drawn) [(3R,4R,5S,6R)-2-(3-(4-(3-((3-hydroxy-2,2-dimethylpropyl)amino)propoxy)benzyl)-4-methylphenyl)-6-(methylthio)tetrahydro-2H-pyran-3,4,5-triol]: the IC50 in assay [1] and in assay [2] was below 10 nM in each case.

As for `CS[C@H]1OC(c2ccc(C)c(Cc3ccc(CCCCCl)cc3)c2)[C@H](O)[C@@H](O)[C@@H]1O` (stereo partly drawn) [(3R,4R,5S,6R)-2-(3-(4-(4-chlorobutyl)benzyl)-4-methylphenyl)-6-(methylthio)tetrahydro-2H-pyran-3,4,5-triol], the IC50 in assay [1] and in assay [2] was below 10 nM each time.

For the compound `CS[C@H]1O[C@@H](c2ccc(C)c(Cc3ccc(/C=C/C(=O)N4CCN(C)CC4)cc3)c2)[C@H](O)[C@@H](O)[C@@H]1O` [(E)-3-(4-(2-methyl-5-((2S,3R,4R,5S,6R)-3,4,5-trihydroxy-6-(methylthio)tetrahydro-2H-pyran-2-yl)benzyl)phenyl)-1-(4-methylpiperazin-1-yl)prop-2-en-1-one], the IC50 was below 100 nM in assay [1] and below 10 nM in assay [2].

In the case of `CS[C@H]1O[C@@H](c2ccc(C)c(Cc3ccc(/C=C/CCC(=O)NC(CO)(CO)CO)cc3)c2)[C@H](O)[C@@H](O)[C@@H]1O` [(E)-N-(1,3-dihydroxy-2-(hydroxymethyl)propan-2-yl)-5-(4-(2-methyl-5-((2S,3R,4R,5S,6R)-3,4,5-trihydroxy-6-(methylthio)tetrahydro-2H-pyran-2-yl)benzyl)phenyl)pent-4-enamide], the IC50 in assay [1] and in assay [2] was below 10 nM throughout.

For the compound `CS[C@H]1O[C@@H](c2ccc(C)c(Cc3ccc(/C=C/CCC(=O)NC(C)(C)C(N)=O)cc3)c2)[C@H](O)[C@@H](O)[C@@H]1O` [(E)-N-(1-amino-2-methyl-1-oxopropan-2-yl)-5-(4-(2-methyl-5-((2S,3R,4R,5S,6R)-3,4,5-trihydroxy-6-(methylthio)tetrahydro-2H-pyran-2-yl)benzyl)phenyl)pent-4-enamide], the IC50 in assay [1] and in assay [2] was below 10 nM in each case.

`CS[C@H]1O[C@@H](c2ccc(C)c(Cc3ccc(/C=C/CCC(=O)NC(C)(C)C(=O)N4CCN(C)CC4)cc3)c2)[C@H](O)[C@@H](O)[C@@H]1O` [(E)-N-(2-methyl-1-(4-methylpiperazin-1-yl)-1-oxopropan-2-yl)-5-(4-(2-methyl-5-((2S,3R,4R,5S,6R)-3,4,5-trihydroxy-6-(methylthio)tetrahydro-2H-pyran-2-yl)benzyl)phenyl)pent-4-enamide]: the IC50 in assay [1] and in assay [2] was below 10 nM in each case.

Consider `CS[C@H]1O[C@@H](c2ccc(C)c(Cc3ccc(OCCCC(=O)N[C@@H](CC(N)=O)C(N)=O)cc3)c2)[C@H](O)[C@@H](O)[C@@H]1O` [(S)-2-(4-(4-(2-methyl-5-((2S,3R,4R,5S,6R)-3,4,5-trihydroxy-6-(methylthio)tetrahydro-2H-pyran-2-yl)benzyl)phenoxy)butanamido)succinamide], for which the IC50 in assay [1] is below 100 nM; in assay [2] it was below 10 nM.

Turning to `CS[C@H]1O[C@@H](c2ccc(Cl)c(Cc3ccc(OCC[C@H](N)C(=O)O)cc3)c2)[C@H](O)[C@@H](O)[C@@H]1O` [(S)-2-amino-4-(4-(2-chloro-5-((2S,3R,4R,5S,6R)-3,4,5-trihydroxy-6-(methylthio)tetrahydro-2H-pyran-2-yl)benzyl)phenoxy)butanoic acid], in assay [1], the “SGLT1 (human SGLT1 IC50)” value is “—”. Besides, the IC50 in assay [2] was below 100 nM.

With `CS[C@H]1O[C@@H](c2ccc(C)c(Cc3ccc(CCC[C@H](N)C(=O)O)cc3)c2)[C@H](O)[C@@H](O)[C@@H]1O` [(S)-2-amino-5-(4-(2-methyl-5-((2S,3R,4R,5S,6R)-3,4,5-trihydroxy-6-(methylthio)tetrahydro-2H-pyran-2-yl)benzyl)phenyl)pentanoic acid], in assay [1], the “SGLT1 (human SGLT1 IC50)” value was “—”. Besides, in assay [2], the IC50 was below 100 nM.

Regarding `CS[C@H]1O[C@@H](c2ccc(Cl)c(Cc3ccc(OCC(=O)NCCCC[C@H](N)C(=O)O)cc3)c2)[C@H](O)[C@@H](O)[C@@H]1O` [(S)-2-amino-6-(2-(4-(2-chloro-5-((2S,3R,4R,5S,6R)-3,4,5-trihydroxy-6-(methylthio)tetrahydro-2H-pyran-2-yl)benzyl)phenoxy)acetamido)hexanoic acid], the figures for the IC50 in assay [1] and in assay [2] were below 100 nM and below 10 nM, respectively.

For the compound `CS[C@H]1O[C@@H](c2ccc(Cl)c(Cc3ccc(OCCCC[C@H](N)C(=O)O)cc3)c2)[C@H](O)[C@@H](O)[C@@H]1O` [(S)-2-amino-6-(4-(2-chloro-5-((2S,3R,4R,5S,6R)-3,4,5-trihydroxy-6-(methylthio)tetrahydro-2H-pyran-2-yl)benzyl)phenoxy)hexanoic acid], the IC50 in assay [1] was below 100 nM; in assay [2], below 10 nM.

For `CS[C@H]1O[C@@H](c2ccc(C)c(Cc3ccc(CCCC(=O)NCCCC[C@H](N)C(=O)O)cc3)c2)[C@H](O)[C@@H](O)[C@@H]1O` [(S)-2-amino-6-(4-(4-(2-methyl-5-((2S,3R,4R,5S,6R)-3,4,5-trihydroxy-6-(methylthio)tetrahydro-2H-pyran-2-yl)benzyl)phenyl)butanamido)hexanoic acid], the IC50 in assay [1] and in assay [2] was below 10 nM each time.

As for `CS[C@H]1O[C@@H](c2ccc(C)c(Cc3ccc(CCCCC(=O)NCCCC[C@H](N)C(=O)O)cc3)c2)[C@H](O)[C@@H](O)[C@@H]1O` [(S)-2-amino-6-(5-(4-(2-methyl-5-((2S,3R,4R,5S,6R)-3,4,5-trihydroxy-6-(methylthio)tetrahydro-2H-pyran-2-yl)benzyl)phenyl)pentanamido)hexanoic acid], the IC50 was below 100 nM in assay [1] and below 10 nM in assay [2].

Turning to `CS[C@H]1O[C@@H](c2ccc(C)c(Cc3ccc(/C=C/C[C@H](N)C(=O)O)cc3)c2)[C@H](O)[C@@H](O)[C@@H]1O` [(S,E)-2-amino-5-(4-(2-methyl-5-((2S,3R,4R,5S,6R)-3,4,5-trihydroxy-6-(methylthio)tetrahydro-2H-pyran-2-yl)benzyl)phenyl)pent-4-enoic acid], the results for the IC50 in assay [1] and in assay [2] were below 100 nM and below 10 nM, respectively.

Take `CSC1OC(c2ccc(C)c(Cc3ccc(CCCC(=O)N4CCN(CCCN5CCN(C(=O)CCCc6ccc(Cc7cc(C8OC(SC)C(O)C(O)C8O)ccc7C)cc6)CC5)CC4)cc3)c2)C(O)C(O)C1O` [(S,R,S,R,R)-1,1′-(4,4′-(propane-1,3-diyl)bis(piperazine-4,1-diyl))bis(4-(4-(2-methyl-5-((2S,3R,4R,5S,6R)-3,4,5-trihydroxy-6-(methylthio)tetrahydro-2H-pyran-2-yl)benzyl)phenyl)butan-1-one)]: the IC50 in assay [1] and in assay [2] was below 10 nM throughout.

`CS[C@H]1O[C@@H](c2ccc(C)c(Cc3ccc(CCCC(=O)NCCCN(C)CCCNC(=O)CCCc4ccc(Cc5cc([C@@H]6O[C@H](SC)[C@@H](O)[C@H](O)[C@H]6O)ccc5C)cc4)cc3)c2)[C@H](O)[C@@H](O)[C@@H]1O` [(S,R,S,R,R)-N,N′-((methylazanediyl)bis(propane-3,1-diyl))bis(4-(4-(2-methyl-5-((2S,3R,4R,5S,6R)-3,4,5-trihydroxy-6-(methylthio)tetrahydro-2H-pyran-2-yl)benzyl)phenyl)butanamide)]: the IC50 in assay [1] and in assay [2] was below 10 nM in each case.

The record behind these values is patent publication US9688710B2, “Inhibitors of sodium glucose cotransporter 1” (LEXICON PHARMACEUTICALS, INC., priority 2012, dated 2017).
